Values after ≈ are worked out from the molar mass of the structure shown.
Assays:
[1] = (§1) Cytotoxicity against human HepG2 cells assessed as reduction in cell viability incubated for 72 hrs by MTT assay; format: toxicity, cell-based; settings: HepG2 cells
[2] = (§2) Cytotoxicity against African green monkey Vero cells assessed as reduction in cell viability incubated for 72 hrs by neutral red uptake method; format: toxicity, cell-based; settings: chlorocebus sabaeus, Vero cells
[3] = (§3) Cytotoxicity against African green monkey Vero cells assessed as reduction in cell viability incubated for 72 hrs by MTT assay; format: toxicity, cell-based; settings: chlorocebus sabaeus, Vero cells
[4] = (§4) Cytotoxicity against human HepG2 cells assessed as reduction in cell viability incubated for 72 hrs by neutral red uptake method; format: toxicity, cell-based; settings: HepG2 cells
[5] = test system: Mycobacterium tuberculosis; assay: microbe, parasite or virus in culture; settings: H37Rv (ATCC 27294)
[6] = test system: Mycobacterium tuberculosis; format: functional, H37Rv (ATCC 27294), RAW264.7; settings: dose 1 µM; time 5 day
[7] = Drug concentration in male CF1 mouse plasma at 300 mg/kg, po administered via gavage and measured after 4 hrs by UHPLC-DAD analysis; format: ADME, organism-based
[8] = Permeability of compound at pH 7.4 at 10 uM measured after 5 hrs by PAMPA assay; format: ADME; settings: read-out: permeability
[9] = Drug concentration in male CF1 mouse plasma at 300 mg/kg, po administered via gavage and measured after […] by UHPLC-DAD analysis; format: ADME, organism-based; settings: time 0.25 hrs
[10] = test system: Klebsiella pneumoniae; format: functional; settings: time 24 hrs
[11] = test system: Acinetobacter baumannii; format: functional; settings: time 24 hrs
[12] = Elimination rate constant in male CF1 mouse at 300 mg/kg, po administered via gavage and measured after 8 hrs by UHPLC-DAD analysis; format: ADME, organism-based; settings: in vivo
[13] = test system: Escherichia coli; format: functional; settings: ATCC 25922, time 24 hrs
[14] = Metabolic stability in rat liver microsomes assessed as half-life at 2 uM measured upto 30 mins in presence of NADPH by HPLC-MS/MS analysis; format: ADME, Microsome
[15] = Chemical stability of compound in PBS at pH 7.4 assessed as parent compound remaining at 10 uM measured after 24 hrs by HPLC-MS/MS analysis; format: physicochemical; settings: read-out: Stability
[16] = Half-life in male CF1 mouse at 300 mg/kg, po administered via gavage and measured after 8 hrs by UHPLC-DAD analysis; format: ADME, organism-based; settings: in vivo
[17] = Chemical stability of compound in 0.1M NH4HCO3 solution at pH 9.1 assessed as parent compound remaining at 10 uM measured after 24 hrs by HPLC-MS/MS analysis; format: physicochemical; settings: read-out: Stability
[18] = Drug concentration in male CF1 mouse plasma at 300 mg/kg, po administered via gavage and measured after 1 hrs by UHPLC-DAD analysis; format: ADME, organism-based
[19] = Drug concentration in male CF1 mouse plasma at 300 mg/kg, po administered via gavage and measured after 8 hrs by UHPLC-DAD analysis; format: ADME, organism-based
[20] = Drug concentration in male CF1 mouse plasma at 300 mg/kg, po administered via gavage and measured after 0.5 hrs by UHPLC-DAD analysis; format: ADME, organism-based
[21] = Chemical stability of compound in 0.1 M HCl solution at pH 1.2 assessed as parent compound remaining at 10 uM measured after 24 hrs by HPLC-MS/MS analysis; format: physicochemical; settings: read-out: Stability
[22] = Metabolic stability in rat liver microsomes assessed as intrinsic clearance at 2 uM measured upto 30 mins in presence of NADPH by HPLC-MS/MS analysis; format: ADME, Microsome; settings: read-out: CLH
[23] = test system: Staphylococcus aureus; format: functional; settings: ATCC 25923, time 24 hrs
[24] = Aqueous solubility of compound in HCl at pH 1.2 incubated for 4 hrs by UHPLC-DAD analysis; format: physicochemical
[25] = test system: Mycobacterium tuberculosis; format: functional, H37Rv (ATCC 27294), RAW264.7; settings: dose 5 µM; time 5 day
[26] = Drug concentration in male CF1 mouse plasma at 300 mg/kg, po administered via gavage and measured after 0.75 hrs by UHPLC-DAD analysis; format: ADME, organism-based
[27] = test system: Mycobacterium tuberculosis; format: functional, H37Rv (ATCC 27294), RAW264.7; settings: dose 1 µM; time 5 day; remark: listed apart in the source
[28] = Aqueous solubility of compound in NH4HCO3 at pH 9.1 incubated for 4 hrs by UHPLC-DAD analysis; format: physicochemical; settings: NH4HCO3, pH 9.1
[29] = test system: HepG2; assay: as §1; format: toxicity, cell-based; settings: hepg2, 72 h
[30] = test system: Vero; assay: as §2; format: toxicity, cell-based; settings: chlorocebus sabaeus, vero, 72 h
[31] = Aqueous solubility of compound in PBS at pH 7.4 incubated for 4 hrs by UHPLC-DAD analysis; format: physicochemical
[32] = test system: Vero; assay: as §3; format: toxicity, cell-based; settings: chlorocebus sabaeus, vero, 72 h
[33] = test system: HepG2; assay: as §4; format: toxicity, cell-based; settings: hepg2, 72 h

Structure (SMILES)	CC50 at 72 h [1] [µM]	CC50 at 72 h [2] [µM]	CC50 at 72 h [3] [µM]	CC50 at 72 h [4] [µM]	MIC [5] [µM]	solubility at 4 h [24] [µM]	further results
CCc1ccc(NCCCOc2cc(CC)nc3ccc(Br)cc23)cc1	> 20	9.1	> 20	8.3	0.1 (≈ 0.0413 µg/mL)	–	–
CCc1ccc(NCCCOc2cc(C)nc3ccc(Br)cc23)cc1	> 20	–	> 20	> 20	–	> 2500	Activity [6]: 3.9 log10CFU; concentration at 4 h [7]: 13.5 µM; Papp at 5 h, 10 µM [8]: 0.2 ×10⁻⁶ cm/s; concentration at […] [9]: 7.49 µM; MIC [10]: > 20 µM; MIC [11]: > 20 µM; k el at 8 h [12]: 4.44e-05 s⁻¹; MIC [13]: > 20 µM; half-life at 2 µM [14]: 7 min; remaining at 24 h, 10 µM [15]: 5.3%; half-life [16]: 258 min; remaining at 24 h, 10 µM [17]: 6%; concentration at 1 h [18]: 32.1 µM; concentration at 8 h [19]: 9.8 µM; concentration at 0.5 h [20]: 11.1 µM; remaining at 24 h, 10 µM [21]: 100%; CLint scaled at 2 µM [22]: 58 mL/min/kg; MIC [23]: > 20 µM; Activity [25]: 4.1 log10CFU; concentration at 0.75 h [26]: 15.7 µM
Cc1cc(OCCCNc2ccc(Br)cc2)c2cc(Cl)ccc2n1	0.3	–	< 1	–	1.55 (≈ 0.629 µg/mL)	–	–
CCc1ccc(NCCCOc2cc(C)nc3ccc(OC)cc23)cc1	–	–	–	–	0.06 (≈ 0.021 µg/mL)	2650 (≈ 929 µg/mL)	–
Cc1cc(OCCCNc2ccc(Cl)cc2)c2cc(Br)ccc2n1	> 20	–	–	> 20	–	> 2470	–
NNC(=O)c1ccncc1 [ISONIAZID]	–	–	–	–	–	–	Activity [27]: 2.25 log10CFU
CCc1ccc(NCCCOc2cc(C)nc3ccc(Cl)cc23)cc1	–	–	–	–	0.03 (≈ 0.0106 µg/mL)	200 (≈ 71 µg/mL)	solubility at 4 h [28]: 0.37 µM (≈ 0.131 µg/mL); CC50 [29]: Not_determined(Insoluble); CC50 [30]: Not_determined(Insoluble); solubility at 4 h [31]: 0.06 µM (≈ 0.0213 µg/mL); CC50 [32]: Not_determined(Insoluble); CC50 [33]: Not_determined(Insoluble)
COc1ccc2nc(C)cc(OCCCNc3ccc(I)cc3)c2c1	10.6	7.5	8.2	12.8	0.09 (≈ 0.0403 µg/mL)	> 2230	–
COc1ccc2nc(C)cc(OCCCNc3ccc(Br)cc3)c2c1	15.3	12.8	> 20	16.8	0.1 (≈ 0.0401 µg/mL)	> 2500	–

Source: ChEMBL document CHEMBL6078678, “Unveiling the Antimycobacterial Potential of Novel 4-Alkoxyquinolines: Insights into Selectivity, Mechanism of Action, and In Vivo Exposure” (J Med Chem, 2024)
